pIC50: −log10 of the molar value.
How the values were obtained:
[1] = test system: NCI-H446 and NCI-H69 human small cell lung cancer xenograft model; experiment: In vivo anti-tumor efficacy, xenograft model; set-up: species or system BALB/c nude mice; settings: 15 mg/kg po., BID × 10 days, QD × 19 days, treatment 29 days
Procedure: This study is to examine the anti-tumor efficacy of test compounds in NCI-H446 and NCI-H69 human small cell lung cancer xenograft model in BALB/c nude mice. Each mouse was inoculated subcutaneously at the right flank region with NCI-H446 (3×10^6) and NCI-H69 cells (5×10^6) in 0.1 mL of PBS and Matrigel (1:1) for tumor development. The mouse were randomized according to tumor size and weight, the treatment began when the mean tumor size reached 100-200 mm^3. Anti-tumor activity was assessed according to relative tumor inhibition rate (TGI).
Tumor volumes were measured in two dimensions using a caliper, and the volume was expressed in mm^3 using the formula: V=0.5a×b^2 where a and bare the long and short diameters of the tumor, respectively. Statistical analysis of difference in tumor volume among the groups were performed using one-way ANOVA. All data was analyzed using SPSS 22.0 software. p<0.05 was considered to be statistically significant.

Aurora A = biological target: T1, Aurora A (Homo sapiens, UniProt O14965); experiment: Aurora A kinase assay (mobility shift assay); type: biochemical
T1 sequence (O14965 1-403): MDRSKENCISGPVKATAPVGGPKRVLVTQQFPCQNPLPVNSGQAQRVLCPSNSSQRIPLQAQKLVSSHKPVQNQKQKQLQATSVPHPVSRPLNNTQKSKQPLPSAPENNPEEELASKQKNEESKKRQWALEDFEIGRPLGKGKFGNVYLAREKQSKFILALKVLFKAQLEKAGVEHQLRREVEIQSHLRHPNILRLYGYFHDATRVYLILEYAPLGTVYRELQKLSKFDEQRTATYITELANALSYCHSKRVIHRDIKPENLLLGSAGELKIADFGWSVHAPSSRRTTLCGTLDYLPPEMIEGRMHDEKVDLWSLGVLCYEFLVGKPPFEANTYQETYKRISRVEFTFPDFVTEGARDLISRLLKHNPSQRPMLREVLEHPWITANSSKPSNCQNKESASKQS
Procedure: (§1) Example A: Evaluation of Aurora a and Aurora B Inhibitory Effect—Kinase Assay
(§2) The inhibitory activities of a test compound against Aurora A and Aurora B were measured according to the following method.
(§3) The IC50 value of Aurora A and Aurora B kinase was performed by Sundia MediTech Co. Ltd. using Mobility shift assay.
(§4) • (1) Prepare a 1× kinase buffer [50 mM 4-(2-hydroxyethyl)-1-piperazineethanesulfonic acid (HEPES), PH 7.5, 0.01% Brij-35, 10 mM MgCl2, 2 mM dithiothreitol (DTT)]. • (2) Prepare compound:
The testing compound was dissolved with DMSO. The testing compound was diluted up to 100× final concentration in a 384-well plate. Transfer 250 nL of the compound dilution to a 384-well assay plate using Echo 550. […] Add 10 μL of the 1× kinase buffer to the negative control well. • (5) The 384-well plate was centrifuged at 1000 rpm for 30 seconds and incubated at room temperature for 10 min. • (6) A mixture of ATP and Kinase substrate 21 with a final concentration of 25/15× was prepared by the 1× kinase buffer. • (7) Add 15 µL of the mixture of 25/15×ATP and kinase substrate solution 21 to start reaction. • (8) The 384-well plate was centrifuged at 1000 rpm for 30 seconds and incubated at room temperature. • (9) 30 µL of the stop and detection buffer was added to stop the kinase reaction and centrifuged at 1000 rpm for 30 seconds. • (10) Collect data on Caliper EZ ReaderII. […]

Aurora B = Aurora B (Homo sapiens, UniProt Q96GD4); experiment: Aurora B kinase assay (mobility shift assay); type: biochemical; settings: ratio of Aurora B IC50 to Aurora A IC50
Procedure: as §1, §2, §3, §4
The testing compound was dissolved with DMSO. The testing compound was diluted up to 100× final concentration in a 384-well plate. Transfer 250 nL of the compound dilution to a 384-well assay plate using Echo 550. 100% DMSO of 250 nL was added to the negative control well and the positive control well. • (3) Prepare a 2.5× enzyme solution using the above 1× kinase buffer. • (4) Add 10 μL of the 2.5× enzyme solution to the compound well and the positive control well of the 384-well assay plate.
Conversion %_sample is conversion rate data of samples. Conversion %_min is mean value of negative control (conversion rate data without enzyme activation). Conversion %_max is mean positive control (conversion rate data without compound).
The log of concentration is on the X axis, and the percentage inhibition is on the Y axis.

PK in rat = type: in vivo, SD male rats
Procedure: The compounds were dissolved into 10% DMSO, 30% PEG400, and 60% saline to obtain a solution. SD male rats were given the compound orally and intravenously. Then plasma samples were collected at 0 hour (pre-dose), 0.25, 0.5, 1, 2, 4, 7, 24 hours post-dose. Plasma drug concentration was detected by LC-MS/MS. Pharmacokinetic parameters were calculated using WinNonlin's software with non-compartmental model.

Sequence of Aurora B (Q96GD4 whole entry): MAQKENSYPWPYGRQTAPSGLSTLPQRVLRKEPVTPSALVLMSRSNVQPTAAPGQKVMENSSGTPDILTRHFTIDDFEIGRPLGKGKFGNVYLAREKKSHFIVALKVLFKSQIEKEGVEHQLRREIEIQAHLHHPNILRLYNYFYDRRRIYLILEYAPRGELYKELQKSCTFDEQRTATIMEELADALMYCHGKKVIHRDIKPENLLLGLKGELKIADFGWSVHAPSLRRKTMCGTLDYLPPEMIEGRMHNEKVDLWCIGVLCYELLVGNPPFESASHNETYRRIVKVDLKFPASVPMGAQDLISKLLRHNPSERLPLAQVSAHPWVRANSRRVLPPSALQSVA

Question: Which “TGI TV(%)” value [1] does the source give for `Cc1cc(Nc2nc(C[C@@]3(C(=O)O)CCN(Cc4cccc(Cl)c4F)[C@H](C)C3)ccc2F)[nH]n1` [Example 5, (2R,4R)-1-(3-chloro-2-fluorobenzyl)-4-((5-fluoro-6-((3-methyl-1H-pyrazol-5-yl)amino)pyridin-2-yl)methyl)-2-methylpiperidine-4-carboxylic acid] here?
Answer: 98%

Question: What about the “TV (mean ± sem)” value [1] of the same compound?
Answer: 27 ± 5 mm^3

Question: With `Cc1cc(Nc2cc(C)c(F)c(C[C@@]3(C(=O)O)CCN(Cc4cccc(Cl)c4F)[C@H](C)C3)n2)n[nH]1` [Example 49, (2R,4R)-1-(3-chloro-2-fluorobenzyl)-4-((3-fluoro-4-methyl-6-((5-methyl-1H-pyraz-ol-3-yl)amino)pyridin-2-yl)methyl)-2-methylpiperidine-4-carboxylic acid] as the compound, how does the “TGI TV(%)” value [1] read?
Answer: 90%

Question: What about the “TV (mean ± sem)” value [1] of the same compound?
Answer: 160 ± 26 mm^3

Question: With `CC(=O)c1cc(Nc2cc(C)[nH]n2)nc(CC2(C(=O)O)CCN(Cc3cccc(Cl)c3F)CC2)c1F` [Example 69, 4-((4-acetyl-3-fluoro-6-((5-methyl-1H-pyrazol-3-yl)amino)pyridin-2-yl)methyl)-1-(3-chloro-2-fluorobenzyl) piperidine-4-carboxylic acid] as the compound, how does the pIC50 (Aurora A) read?
Answer: 9.04

Question: And the “IC50 Ratio Aur B/Aur A” value (Aurora B)?
Answer: 1444

Question: Which “TGI TV(%)” value [1] does the source give for `Cc1cc(Nc2cc(Cl)c(F)c(C[C@@]3(C(=O)O)CCN(Cc4cccc(Cl)c4F)[C@H](C)C3)n2)n[nH]1` [Example 72, (2R,4R)-1-(3-chloro-2-fluorobenzyl)-4-((4-chloro-3-fluoro-6-((5-methyl-1H-pyrazol-3-yl)amino)pyridin-2-yl)methyl)-2-methylpiperidine-4-carboxylic acid] here?
Answer: 89%

Question: What about the “TV (mean ± sem)” value [1] of the same compound?
Answer: 176 ± 25 mm^3

Question: Which “TGI TV(%)” value [1] does the source give for `Cc1cc(Nc2nc(C[C@@]3(C(=O)O)CCN(Cc4cccc(Cl)c4F)[C@H](C)C3)cc(C)c2F)n[nH]1` [Example 78, (2R,4R)-1-(3-chloro-2-fluorobenzyl)-4-((5-fluoro-4-methyl-6-((5-methyl-1H-pyrazol-3-yl)amino)pyridin-2-yl)methyl)-2-methylpiperidine-4-carboxylic acid] here?
Answer: 96%

Question: And the “TV (mean ± sem)” value [1]?
Answer: 65 ± 14 mm^3

Question: Which CL (PK in rat; IV: 3 mg/kg) does the source give for `Cc1cc(Nc2ccc(F)c(C[C@@]3(C(=O)O)CCN(Cc4cccc(Cl)c4F)[C@H](C)C3)n2)n[nH]1` [LY3295668] here?
Answer: 1.52 mL/min/kg

Question: What about the Vss (PK in rat; IV: 3 mg/kg) of the same compound?
Answer: 0.29 L/kg

Question: And the AUClast (PK in rat; PO: 10 mg/kg)?
Answer: 91211 ng·h/mL

Question: What about the Cmax (PK in rat; PO: 10 mg/kg) of the same compound?
Answer: 15033 ng/mL

Question: What about the t½ (PK in rat; PO: 10 mg/kg) of the same compound?
Answer: 3.37 h

Question: What about the F % (PK in rat; PO: 10 mg/kg vs IV: 3 mg/kg) of the same compound?
Answer: 81%

Reference: US20230128198A1, “NOVEL HETEROCYCLIC COMPOUNDS USEFUL AS AURORA A SELECTIVE INHIBITORS” (JACOBIO PHARMACEUTICALS CO., LTD., priority 2020, published 2023)
